Reference: patent publication US20090227575A1, “7H-PYRROLO[2,3-H]QUINAZOLINE COMPOUNDS, THEIR USE AS mTOR KINASE AND PI3 KINASE INHIBITORS, AND THEIR [sequence]” (Wyeth, priority 2008, published 2009)

How the values were obtained:
Assay type in all cases: biochemical
[1] = target: PI3K-alpha (Homo sapiens, UniProt P42336); experiment: PI3K-alpha fluorescence polarization assay; details: read-out: PI3 Kinase α IC50
Experimental: (§1) The reaction buffer was 20 mM HEPES, pH 7.5, 2 mM MgCl2, 0.05% CHAPS; and 0.01% βME (added fresh). The Stop/Detection Buffer was 100 mM HEPES, pH 7.5, 4 mM EDTA, 0.05% CHAPS; ATP 20 mM in water; PIP2 (diC8, Echelon, Salt Lake City Utah cat #P-4508) 1 mM in water (MW=856.5). The GST-GRP was 1.75 mg/mL or 1.4 mg/mL in 10% glycerol. The Red detector (TAMRA) was 2.5 μM. Nunc 384-well black polypropylene fluorescent plates were used for PI3K assays.
(§2) The assay is run by placing 5 μL of diluted enzyme per well, then 5 μL of diluted compound (or 9.5 μL enzyme then 0.5 μL compound in DMSO) is added and mixed. Then, 10 μL substrate is added to start the reaction. The samples are incubated 30-60 minutes, then the reaction is stopped by adding 20 μL stop/detector mix. PI3K is diluted with reaction buffer (e.g., 5 μL or 7.5 μL PI3K into 620 μL reaction buffer), and 5 μL of diluted enzyme is used per well. A 5 μL portion of reaction buffer or of drug diluted in buffer (e.g., 4 μL/100 so final DMSO is 1% in reaction) is added to each. Pipetting up and down mixes the samples. Alternatively, the enzyme can be diluted to 1215 μL. In this case 9.8 μL is added per well and 0.2 μL compound is added in DMSO.
(§3) To prepare 1 mL of substrate solution, 955 μL reaction buffer, 40 μL PIP2, and 2.5 μL ATP are mixed. 10 μL of substrate is added to each well to start the reaction. […] The stop/detector mix is prepared by mixing 4 μL Red detector and 1.6 μL or 2.0 μL GST-GRP with 1 mL stop buffer, which results in 10 nM probe and 70 nM GST-GRP. 20 μL of the stop/detector mix is added to each well to stop the reaction. The plates are read after 30-90 minutes keeping the red probe solutions dark. For the zero time point, stop/detector mix is added to the enzyme just before adding substrate. For an extra control, stop/detector mix is added to buffer (no enzyme) and substrate or to just buffer (no substrate). […] The recommended reaction has 0.06 μL per 20 μL (0.015 μg/20 μL) or 0.01125 μg/15 μL or 0.75 μg/mL.
(§4) Plates are read on machines with filters for TAMRA. The units are mP with no enzyme controls reading app 190-220 mP units. Fully active enzyme reduces fluorescence polarization down to 70-100 mP after 30 minutes. An active compound raises the mP values halfway to control or to 120-150 mP units.

[2] = target: PI3K-gamma (Homo sapiens, UniProt P48736); experiment: PI3K-gamma fluorescence polarization assay; details: read-out: PI3 Kinase γ IC50
Experimental: as §1, §2, §3, §4

[3] = target: Human mTOR (Homo sapiens, UniProt P42345); experiment: mTOR kinase assay (DELFIA format, purified enzyme); set-up: FLAG; details: read-out: TOR Kinase IC50

Chain of PI3K-gamma (P48736 whole entry, species assumed): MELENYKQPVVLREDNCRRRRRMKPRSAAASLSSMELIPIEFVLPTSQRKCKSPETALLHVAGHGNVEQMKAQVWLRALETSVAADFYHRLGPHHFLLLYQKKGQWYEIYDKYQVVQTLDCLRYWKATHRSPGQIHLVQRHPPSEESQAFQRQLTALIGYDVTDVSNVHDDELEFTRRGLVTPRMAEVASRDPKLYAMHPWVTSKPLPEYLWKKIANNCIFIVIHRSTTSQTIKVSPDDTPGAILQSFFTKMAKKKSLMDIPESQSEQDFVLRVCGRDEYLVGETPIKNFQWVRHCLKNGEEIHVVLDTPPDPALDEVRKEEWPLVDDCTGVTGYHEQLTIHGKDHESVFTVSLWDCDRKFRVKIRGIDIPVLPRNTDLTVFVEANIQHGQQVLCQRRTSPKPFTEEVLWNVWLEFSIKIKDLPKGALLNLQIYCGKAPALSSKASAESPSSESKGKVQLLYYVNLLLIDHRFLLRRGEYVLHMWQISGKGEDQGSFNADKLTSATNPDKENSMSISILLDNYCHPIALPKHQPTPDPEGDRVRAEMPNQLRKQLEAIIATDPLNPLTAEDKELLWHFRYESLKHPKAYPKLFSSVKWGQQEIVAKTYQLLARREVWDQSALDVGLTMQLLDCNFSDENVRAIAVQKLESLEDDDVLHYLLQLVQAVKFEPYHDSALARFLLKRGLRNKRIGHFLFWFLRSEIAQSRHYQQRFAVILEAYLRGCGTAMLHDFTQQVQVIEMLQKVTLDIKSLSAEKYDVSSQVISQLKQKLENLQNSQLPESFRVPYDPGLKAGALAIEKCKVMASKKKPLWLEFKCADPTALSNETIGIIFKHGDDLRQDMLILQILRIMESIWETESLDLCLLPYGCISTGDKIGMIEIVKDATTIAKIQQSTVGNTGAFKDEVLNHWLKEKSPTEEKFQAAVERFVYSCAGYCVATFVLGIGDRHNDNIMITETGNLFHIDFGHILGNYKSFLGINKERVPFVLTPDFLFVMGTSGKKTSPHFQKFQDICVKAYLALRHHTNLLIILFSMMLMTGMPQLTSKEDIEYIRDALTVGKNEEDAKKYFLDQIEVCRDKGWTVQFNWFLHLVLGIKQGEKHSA
Chain of PI3K-alpha (P42336 whole entry, species assumed): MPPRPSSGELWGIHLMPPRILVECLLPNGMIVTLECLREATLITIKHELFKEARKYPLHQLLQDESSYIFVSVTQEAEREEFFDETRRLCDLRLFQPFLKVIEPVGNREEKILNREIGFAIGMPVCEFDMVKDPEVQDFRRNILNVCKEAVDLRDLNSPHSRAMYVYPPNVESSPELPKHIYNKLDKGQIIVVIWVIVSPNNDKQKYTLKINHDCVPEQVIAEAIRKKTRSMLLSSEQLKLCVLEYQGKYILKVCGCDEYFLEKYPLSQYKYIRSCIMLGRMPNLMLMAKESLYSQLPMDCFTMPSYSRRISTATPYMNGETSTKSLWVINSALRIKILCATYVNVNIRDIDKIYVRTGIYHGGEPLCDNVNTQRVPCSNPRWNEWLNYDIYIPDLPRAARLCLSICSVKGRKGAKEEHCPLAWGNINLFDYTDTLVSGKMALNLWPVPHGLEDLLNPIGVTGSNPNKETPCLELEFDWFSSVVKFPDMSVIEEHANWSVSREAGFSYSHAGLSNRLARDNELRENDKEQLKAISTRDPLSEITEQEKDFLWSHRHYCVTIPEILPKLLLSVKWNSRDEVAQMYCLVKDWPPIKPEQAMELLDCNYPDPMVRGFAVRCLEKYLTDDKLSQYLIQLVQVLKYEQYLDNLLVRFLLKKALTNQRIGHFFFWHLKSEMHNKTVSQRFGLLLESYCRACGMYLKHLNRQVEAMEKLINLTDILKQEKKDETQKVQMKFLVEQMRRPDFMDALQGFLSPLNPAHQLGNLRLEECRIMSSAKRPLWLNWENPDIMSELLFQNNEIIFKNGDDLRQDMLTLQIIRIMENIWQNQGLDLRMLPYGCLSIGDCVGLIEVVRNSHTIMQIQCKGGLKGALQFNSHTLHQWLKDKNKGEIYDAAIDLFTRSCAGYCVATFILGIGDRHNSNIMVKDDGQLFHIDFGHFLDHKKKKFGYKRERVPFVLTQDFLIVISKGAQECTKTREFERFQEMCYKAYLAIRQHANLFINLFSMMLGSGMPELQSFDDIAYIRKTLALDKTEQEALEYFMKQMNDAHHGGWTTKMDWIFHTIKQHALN
Chain of PI3K-alpha (P27986 whole entry partner, species assumed): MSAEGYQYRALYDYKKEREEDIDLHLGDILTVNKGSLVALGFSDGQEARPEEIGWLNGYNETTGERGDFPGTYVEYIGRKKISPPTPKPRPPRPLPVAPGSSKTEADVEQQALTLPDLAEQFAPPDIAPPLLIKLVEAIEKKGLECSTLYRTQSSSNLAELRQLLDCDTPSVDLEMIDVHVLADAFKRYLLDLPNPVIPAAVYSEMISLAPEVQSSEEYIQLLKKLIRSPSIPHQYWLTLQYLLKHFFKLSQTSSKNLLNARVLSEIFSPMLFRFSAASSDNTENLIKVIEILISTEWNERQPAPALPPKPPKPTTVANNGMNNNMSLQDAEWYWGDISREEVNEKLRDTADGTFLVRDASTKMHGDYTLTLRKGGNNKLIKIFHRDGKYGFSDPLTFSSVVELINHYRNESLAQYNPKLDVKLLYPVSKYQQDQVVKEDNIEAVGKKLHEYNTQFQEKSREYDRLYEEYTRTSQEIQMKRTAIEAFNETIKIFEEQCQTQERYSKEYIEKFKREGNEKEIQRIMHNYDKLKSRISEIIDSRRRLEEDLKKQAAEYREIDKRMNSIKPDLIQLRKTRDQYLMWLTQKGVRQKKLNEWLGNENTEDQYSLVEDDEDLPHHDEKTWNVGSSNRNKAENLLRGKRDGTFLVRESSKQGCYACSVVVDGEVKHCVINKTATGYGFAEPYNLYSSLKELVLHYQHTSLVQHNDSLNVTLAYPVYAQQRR

IC50 [1] [nM]	IC50 [2] [nM]	IC50 [3] [nM]	Structure (SMILES)
6590	6660	2800	C=CCC(O)c1cccc(-c2nc(N3CCOCC3)c3ccc4c(ccn4C)c3n2)c1 (stereo not shown) [Example 27, 1-[3-(7-methyl-4-morpholin-4-yl-7H-pyrrolo[2,3-h]quinazolin-2-yl)phenyl]but-3-en-1-ol]
201	3190	1300	CN(C)CCn1ccc2c3nc(-c4cnc(N)nc4)nc(N4CCOCC4)c3ccc21 [Example 34, 5-{7-[2-(dimethylamino)ethyl]-4-morpholin-4-yl-7H-pyrrolo[2,3-h]quinazolin-2-yl}pyrimidin-2-amine]
101	437	3.7	Cn1ccc2c3nc(-c4ccc(NC(=O)Nc5ccncc5)cc4)nc(N4CCOCC4)c3ccc21 [Example 11, 1-[4-(7-methyl-4-morpholin-4-yl-7H-pyrrolo[2,3-h]quinazolin-2-yl)phenyl]-3-pyridin-4-ylurea]
514	3580	235	OCc1cccc(-c2nc(N3CCOCC3)c3ccc4[nH]ccc4c3n2)c1 [Example 57]
1690	3500	560	Cn1ccc2c3nc(-c4ccc(NC(=O)NCc5ccco5)cc4)nc(N4CCOCC4)c3ccc21 [Example 7, 1-(2-furylmethyl)-3-[4-(7-methyl-4-morpholin-4-yl-7H-pyrrolo[2,3-h]quinazolin-2-yl)phenyl]urea]
616	3590	630	Cn1ccc2c3nc(-c4ccc(N)nc4)nc(N4CCOCC4)c3ccc21 [Example 42, 5-(7-methyl-4-morpholin-4-yl-7H-pyrrolo[2,3-h]quinazolin-2-yl)pyridin-2-amine]
71	247	21	Cn1ccc2c3nc(-c4ccc(NC(=O)Nc5ccccc5)cc4)nc(N4CCOCC4)c3ccc21 [Example 10, 1-[4-(7-methyl-4-morpholin-4-yl-7H-pyrrolo[2,3-h]quinazolin-2-yl)phenyl]-3-phenylurea]
6480		805	Cn1ccc2c3nc(-c4ccc(N)cc4)nc(N4CCOCC4)c3ccc21 [Example 1, 4-(7-methyl-4-morpholin-4-yl-7H-pyrrolo[2,3-h]quinazolin-2-yl)aniline]
6970	6700	50	Cn1ccc2c3nc(-c4cccc(S(=O)(=O)NC5CC5)c4)nc(N4CCOCC4)c3ccc21 [Example 56, N-cyclopropyl-3-(7-methyl-4-morpholin-4-yl-7H-pyrrolo[2,3-h]quinazolin-2-yl)benzenesulfonamide]
8400	6160	5300	Cn1ccc2c3nc(-c4ccc(NS(=O)(=O)c5ccccc5)cc4)nc(N4CCOCC4)c3ccc21 [Example 22, N-[4-(7-methyl-4-morpholin-4-yl-7H-pyrrolo[2,3-h]quinazolin-2-yl)phenyl]benzenesulfonamide]
102	471	155	Nc1ncc(-c2nc(N3CCOCC3)c3ccc4[nH]ccc4c3n2)cn1 [Example 58, -(4-morpholin-4-yl-7H-pyrrolo[2,3-h]quinazolin-2-yl)pyrimidin-2-amine]
2460	2830	1130	Cn1ccc2c3nc(-c4cccc5[nH]ccc45)nc(N4CCOCC4)c3ccc21 [Example 45, 2-(1H-indol-4-yl)-7-methyl-4-morpholin-4-yl-7H-pyrrolo[2,3-h]quinazoline]
10300	> 10000	2080	c1cc(-c2nc(N3CCOCC3)c3ccc4[nH]ccc4c3n2)c2cn[nH]c2c1 [Example 80, 2-(1H-indazol-4-yl)-4-morpholin-4-yl-7H-pyrrolo[2,3-h]quinazoline]
455	4950	9150	CN(C)CCn1ccc2c3nc(-c4cccc(CO)c4)nc(N4CCOCC4)c3ccc21 [Example 30, (3-{7-[2-(dimethylamino)ethyl]-4-morpholin-4-yl-7H-pyrrolo[2,3-h]quinazolin-2-yl}phenyl)methanol]
48	300	73	CC(C)N1CCC(S(=O)(=O)n2ccc3c4nc(-c5ccc(NC(=O)Nc6ccncc6)cc5)nc(N5CCOCC5)c4ccc32)CC1 [Example 65, 1-(4-{7-[(1-isopropylpiperidin-4-yl)sulfonyl]-4-morpholin-4-yl-7H-pyrrolo[2,3-h]quinazolin-2-yl}phenyl)-3-pyridin-4-ylurea]
3080	> 10000	370	CC(=O)Nc1ccc(-c2nc(N3CCOCC3)c3ccc4c(ccn4C)c3n2)cc1 [Example 16, N-[4-(7-methyl-4-morpholin-4-yl-7H-pyrrolo[2,3-h]quinazolin-2-yl)phenyl]acetamide]
2970	4070	3800	Cn1ccc2c3nc(-c4cccc(C(O)c5ccccc5)c4)nc(N4CCOCC4)c3ccc21 (stereo not shown) [Example 29, [3-(7-methyl-4-morpholin-4-yl-7H-pyrrolo[2,3-h]quinazolin-2-yl)phenyl](phenyl)methanol]
168	2070	5800	O=S(=O)(c1ccccc1)n1ccc2c3nc(-c4cccc(CO)c4)nc(N4CCOCC4)c3ccc21 [Example 70, {3-[4-morpholin-4-yl-7-(phenylsulfonyl)-7H-pyrrolo[2,3-h]quinazolin-2-yl]phenyl}methanol]
74	313	44	CCN1CCC(S(=O)(=O)n2ccc3c4nc(-c5ccc(NC(=O)Nc6ccncc6)cc5)nc(N5CCOCC5)c4ccc32)CC1 [Example 64, 1-(4-{7-[(1-ethylpiperidin-4-yl)sulfonyl]-4-morpholin-4-yl-7H-pyrrolo[2,3-h]quinazolin-2-yl}phenyl)-3-pyridin-4-ylurea]
		21	CCCNC(=O)Nc1ccc(-c2nc(N3CCOCC3)c3ccc4c(ccn4C)c3n2)cc1 [Example 54, 1-[4-(7-methyl-4-morpholin-4-yl-7H-pyrrolo[2,3-h]quinazolin-2-yl)phenyl]-3-propylurea]
2700		2050	CN(C)CCCNC(=O)Nc1ccc(-c2nc(N3CCOCC3)c3ccc4c(ccn4C)c3n2)cc1 [Example 5, 1-[3-(dimethylamino)propyl]-3-[4-(7-methyl-4-morpholin-4-yl-7H-pyrrolo[2,3-h]quinazolin-2-yl)phenyl]urea]
		4000	Cn1ccc2c3nc(-c4ccc(C(=O)O)cc4)nc(N4CCOCC4)c3ccc21 [Example 38, 4-(7-methyl-4-morpholin-4-yl-7H-pyrrolo[2,3-h]quinazolin-2-yl)benzoic acid]
7630		2550	CN1CCN(C(=O)Nc2ccc(-c3nc(N4CCOCC4)c4ccc5c(ccn5C)c4n3)cc2)CC1 [Example 6, 4-methyl-N-[4-(7-methyl-4-morpholin-4-yl-7H-pyrrolo[2,3-h]quinazolin-2-yl)phenyl]piperazine-1-carboxamide]
		1720	Cn1ccc2c3nc(-c4cccc(C(N)=O)c4)nc(N4CCOCC4)c3ccc21 [Example 39, 3-(7-methyl-4-morpholin-4-yl-7H-pyrrolo[2,3-h]quinazolin-2-yl)benzamide]
> 10000	> 10000		Cn1ccc2c3nc(-c4cnc(O)nc4)nc(N4CCOCC4)c3ccc21 [Example 51, 5-(7-methyl-4-morpholin-4-yl-7H-pyrrolo[2,3-h]quinazolin-2-yl)pyrimidin-2-ol]
		2300	Cn1ccc2c3nc(-c4cccc(C#N)c4)nc(N4CCOCC4)c3ccc21 [Example 40, 3-(7-methyl-4-morpholin-4-yl-7H-pyrrolo[2,3-h]quinazolin-2-yl)benzonitrile]
8880	3660		Cn1ccc2c3nc(-c4cccc(F)c4)nc(N4CCOCC4)c3ccc21 [Example 52, 2-(3-fluorophenyl)-7-methyl-4-morpholin-4-yl-7H-pyrrolo[2,3-h]quinazoline]
7830	> 10000		Cn1ccc2c3nc(-c4ccc(NS(C)(=O)=O)cc4)nc(N4CCOCC4)c3ccc21 [Example 21, N-[4-(7-methyl-4-morpholin-4-yl-7H-pyrrolo[2,3-h]quinazolin-2-yl)phenyl]methanesulfonamide]
